Test results published in article PMC9739180, “Discovery of a Flavonoid FM04 as a Potent Inhibitor to Reverse P-Glycoprotein-Mediated Drug Resistance in Xenografts and Improve Oral Bioavailability of Paclitaxel” (International Journal of Molecular Sciences, 2022).
Read-outs that look alike come from different tables or passages of the source.

Legend:
P-gp [1] = target: T1, P-gp (Homo sapiens, UniProt P08183); assay: Reversal of P-gp-mediated MDR in LCC6MDR cells (MTS cell viability, 5 days)
Description: To each well of a 96-well plate, 6500 cells of LCC6MDR were seeded in 180 μL supplemented medium. A 10 µL compound (FD18, 14a, FM04 or FM327) at different concentrations (0, 62.5, 125, 250, 500 and 1000 nM) was added to the well. […] The final volume in each well was 200 µL and the 96-well plate was incubated at 37 °C for 5 days. The cell viability was determined using the MTS assay as reported previously. The % of cell survival, IC50 of anticancer drugs towards the LCC6MDR and the EC50 of modulators were analyzed using nonlinear regression in Prism 5.0 (Prism version 5.0, GraphPad software, San Diego, CA, USA).

[2] = In vivo monitoring of FD18 and its metabolites in plasma after I.V. FD18; set-up: species or system SD rats; conditions: after FD18 5 mg/kg I.V.; for AUC(0-t) / Cmax / Tmax: Sprague-Dawley, rat, iv
Description: Figure 3 Proposed metabolism pathway of FD18 and its metabolites formed in vivo. (A) metabolism study of FD18 was conducted on human liver microsomes (HLM) and rat liver microsomes (RLM) in vitro. Chemical structure of the 3 metabolites was predicted by LC/QTOF-MS/MS and confirmed by the synthetic compounds (Figure 2E–J). The pathways for biotransformation of FD18 into FM04 was proposed. (B) plasma concentration profile of FD18 and the in vivo formation of metabolites M1, M2 and M3. After I.V. injection of FD18 (5 mg/kg) into […], plasma was collected at 10, 30, 60, 120, 240, 420 and 600 min, respectively. The concentration of FD18 at each time point was determined by UPLC-MS/MS. Its plasma concentration was further quantified with peak area ratio of FD18 against D7-18. […] In vivo formation of metabolites M1, M2 and M3 were monitored and quantified by UPLC-MS/MS with corresponding calibration curve of 14a, FM04 and FM327. Pharmacokinetic parameter AUC was calculated by the pharmacokinetic software-Summit® PK solutions 2.0 (Summit Research Service, Ashland, Wilmington, DE, USA).
FD18 stock solution was freshly prepared in 33% Cremophor EL, 33% ethanol and 33% saline at a concentration of 9.5 mg/mL. FD18 stock solution was then diluted with saline to form a 4 mg/mL working solution for animal injection. SD rats were intravenously (I.V.) administered with FD18 at 5 mg/kg (n = 3). Blood samples (approx. 300 μL) were taken via jugular vein at 10, 30, 60, 120, 240 and 420 min post-administration. Blood samples were centrifuged at 16,100× g for 10 min to obtain plasma. Plasma samples (50 µL) were spiked with 15 μL of internal standard (IS) (D7-NBn, 10 μg/mL). Two hundred microliter of methanol was added for protein precipitation. Samples were centrifuged at 16,100× g for 10 min prior to filtering by 0.22 μm syringe filter for UPLC-MSMS analysis.
The UPLC-MS/MS system consists of an Agilent 1260 infinity UPLC interfaced with a triple quadrupole mass spectrometer (Agilent 6460) equipped with an electrospray ionization source in positive mode. Zorbax Eclipse XDB-C8 (4.6 × 150 mm, 5 µM) was used for separation. The mobile phase for chromatographic separation consisted of methanol + 0.1% formic acid (solvent B) and Milli-Q water + 0.1% formic acid (solvent A) with gradient elution of 30% solvent B to 100% solvent B in 5 min. The elution condition was allowed for equilibrium from the 7th min onward. The analysis time for each injection was 13 min. The flow rate was 0.4 mL/min. The synthetic compound D7-NBn, the deuterated benzyl form of FD18, was used as the internal standard (IS) for the quantification of the three metabolites. Multiple reaction monitoring (MRM) was set to monitor the transitions of D7-NBn [M+H]^+, FD18 [M+H]^+, M1 [M+H]^+, M2 [M+H]^+ and M3 [M+H]^+ at 731.01 > 98.1 m/z, 724.01 > 91.1 m/z, 634.01 > 114 m/z, 416.01 > 91.1 m/z and 327.01 > 239 m/z, respectively. The coefficient of determination (R^2) for 14a, FM04 and FM327 were above 0.99. The dynamic range for the metabolites in the current setting is 78 ng/mL to 2.44 ng/mL.

MRP1 = target: T2, MRP1 (Homo sapiens, UniProt P33527); assay: MRP1-modulating activity in 2008/MRP1 cells (MTS); type: cell-based; conditions: no modulator; read-out: IC50 of DOX in 2008/MRP1, DMSO
T2 construct: expressed in transfected cells; host or cells: 2008/MRP1 (human ovarian cancer)
Description: (§1) The final volume in each well of the 96-well plate was 200 μL. The plate was then incubated for 5 days at 37 °C. The cell viability was determined using an MTS assay as reported previously.

LCC6 cells = assay: IC50 of anticancer drugs in wild-type LCC6 with or without FM04; type: cell-based, human; conditions: for IC50: Homo sapiens; for RF, LCC6 + DMSO: IC50 in LCC6MDR without FM04 / IC50 in LCC6; for RF, LCC6 + 1 μM FM04: IC50 in LCC6MDR without FM04 / IC50 in LCC6 with FM04
Excerpt: Table S1. IC50 of anticancer drugs in LCC6 and LCC6MDR and P-gp modulating activity of FM04.
fold): IC50 of an anticancer drug of LCC6MDR without FM04/IC50 of an anticancer of LCC6 with or without
FM04 or LCC6MDR with FM04. N = 2 - 8 independent experiment. The IC50 values were presented as mean ±
standard error mean. /: not determined.

L929 = system: L929; set-up: method as in earlier work; conditions: mouse fibroblast cell line; read-out: Cytotoxicity IC50, L929; cited from earlier work
P-gp [3] = target: T1, P-gp; assay: Intracellular DOX accumulation assay in LCC6MDR cells
P-gp [4] = target: T1, P-gp; set-up: expressed in transfected cells; host or cells: MDA435/LCC6MDR (human melanoma); method as in PMID 22320402; conditions: LCC6MDR; cited from earlier work
BCRP = target: T3, BCRP (Homo sapiens, UniProt Q9UNQ0); assay: BCRP-modulating activity in HEK293/R2 cells (MTS); type: cell-based; conditions: no modulator; read-out: IC50 of Topotecan in HEK293/R2, DMSO
T3 construct: expressed in transfected cells; host or cells: HEK293/R2
T3 sequence (Q9UNQ0 1-655): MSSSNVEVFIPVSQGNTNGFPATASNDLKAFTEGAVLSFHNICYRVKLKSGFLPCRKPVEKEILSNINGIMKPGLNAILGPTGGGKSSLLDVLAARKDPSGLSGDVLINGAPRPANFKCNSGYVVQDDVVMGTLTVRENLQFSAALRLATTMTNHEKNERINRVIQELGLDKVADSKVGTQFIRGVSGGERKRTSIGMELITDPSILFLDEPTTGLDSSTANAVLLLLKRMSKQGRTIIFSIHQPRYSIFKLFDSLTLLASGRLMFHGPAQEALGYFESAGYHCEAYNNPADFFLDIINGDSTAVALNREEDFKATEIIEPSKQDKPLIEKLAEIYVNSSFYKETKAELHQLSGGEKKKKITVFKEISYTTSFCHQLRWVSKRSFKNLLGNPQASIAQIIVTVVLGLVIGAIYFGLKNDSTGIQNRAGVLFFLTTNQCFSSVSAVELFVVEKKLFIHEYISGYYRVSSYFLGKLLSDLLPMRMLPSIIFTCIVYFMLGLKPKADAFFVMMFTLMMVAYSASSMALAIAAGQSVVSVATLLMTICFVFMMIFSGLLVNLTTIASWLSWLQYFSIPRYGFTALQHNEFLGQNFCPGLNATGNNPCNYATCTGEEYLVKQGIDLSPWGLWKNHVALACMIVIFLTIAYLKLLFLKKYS
Description: as §1

P-gp [5] = target: T1, P-gp; set-up: expressed in transfected cells; host or cells: MDA435/LCC6MDR (human melanoma); conditions: read-out: EC50 for reversing PTX resistance; cited from earlier work
[6] = oral co-administration; cited from earlier work
[7] = LCC-6, wild-type LCC6, no modulator, read-out: IC50 of anticancer drug, LCC6 + DMSO

T1 sequence (P08183 whole entry): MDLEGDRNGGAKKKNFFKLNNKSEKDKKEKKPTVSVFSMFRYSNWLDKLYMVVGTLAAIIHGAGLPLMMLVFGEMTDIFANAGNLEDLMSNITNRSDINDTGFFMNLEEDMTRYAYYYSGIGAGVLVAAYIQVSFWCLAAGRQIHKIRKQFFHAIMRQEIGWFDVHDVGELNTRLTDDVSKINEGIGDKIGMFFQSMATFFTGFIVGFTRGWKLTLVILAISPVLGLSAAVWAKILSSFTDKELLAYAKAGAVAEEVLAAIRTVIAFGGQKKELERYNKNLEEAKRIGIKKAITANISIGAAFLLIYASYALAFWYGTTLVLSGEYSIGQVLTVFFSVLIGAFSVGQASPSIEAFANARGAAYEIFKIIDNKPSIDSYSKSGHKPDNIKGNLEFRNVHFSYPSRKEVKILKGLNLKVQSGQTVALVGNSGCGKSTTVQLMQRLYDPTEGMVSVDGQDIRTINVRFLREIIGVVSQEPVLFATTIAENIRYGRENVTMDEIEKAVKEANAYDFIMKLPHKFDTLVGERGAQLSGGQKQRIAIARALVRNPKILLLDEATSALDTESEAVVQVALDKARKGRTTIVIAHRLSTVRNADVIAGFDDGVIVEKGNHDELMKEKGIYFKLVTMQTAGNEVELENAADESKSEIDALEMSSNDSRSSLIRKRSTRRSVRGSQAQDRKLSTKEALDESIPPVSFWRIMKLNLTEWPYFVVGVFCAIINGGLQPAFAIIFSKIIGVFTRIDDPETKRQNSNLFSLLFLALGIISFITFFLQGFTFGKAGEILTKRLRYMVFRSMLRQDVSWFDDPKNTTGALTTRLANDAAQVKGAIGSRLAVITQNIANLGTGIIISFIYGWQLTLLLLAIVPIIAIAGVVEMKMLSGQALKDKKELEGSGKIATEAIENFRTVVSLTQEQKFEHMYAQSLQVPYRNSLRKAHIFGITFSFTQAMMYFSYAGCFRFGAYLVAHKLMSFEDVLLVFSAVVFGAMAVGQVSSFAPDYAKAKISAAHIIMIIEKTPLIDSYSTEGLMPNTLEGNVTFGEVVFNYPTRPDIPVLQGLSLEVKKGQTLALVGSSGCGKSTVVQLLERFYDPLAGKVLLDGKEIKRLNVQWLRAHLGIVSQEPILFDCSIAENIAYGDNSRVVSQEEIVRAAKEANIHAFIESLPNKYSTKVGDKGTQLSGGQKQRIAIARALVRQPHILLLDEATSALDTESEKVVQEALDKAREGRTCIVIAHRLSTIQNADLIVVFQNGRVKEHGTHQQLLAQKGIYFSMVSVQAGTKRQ
T2 sequence (P33527 whole entry): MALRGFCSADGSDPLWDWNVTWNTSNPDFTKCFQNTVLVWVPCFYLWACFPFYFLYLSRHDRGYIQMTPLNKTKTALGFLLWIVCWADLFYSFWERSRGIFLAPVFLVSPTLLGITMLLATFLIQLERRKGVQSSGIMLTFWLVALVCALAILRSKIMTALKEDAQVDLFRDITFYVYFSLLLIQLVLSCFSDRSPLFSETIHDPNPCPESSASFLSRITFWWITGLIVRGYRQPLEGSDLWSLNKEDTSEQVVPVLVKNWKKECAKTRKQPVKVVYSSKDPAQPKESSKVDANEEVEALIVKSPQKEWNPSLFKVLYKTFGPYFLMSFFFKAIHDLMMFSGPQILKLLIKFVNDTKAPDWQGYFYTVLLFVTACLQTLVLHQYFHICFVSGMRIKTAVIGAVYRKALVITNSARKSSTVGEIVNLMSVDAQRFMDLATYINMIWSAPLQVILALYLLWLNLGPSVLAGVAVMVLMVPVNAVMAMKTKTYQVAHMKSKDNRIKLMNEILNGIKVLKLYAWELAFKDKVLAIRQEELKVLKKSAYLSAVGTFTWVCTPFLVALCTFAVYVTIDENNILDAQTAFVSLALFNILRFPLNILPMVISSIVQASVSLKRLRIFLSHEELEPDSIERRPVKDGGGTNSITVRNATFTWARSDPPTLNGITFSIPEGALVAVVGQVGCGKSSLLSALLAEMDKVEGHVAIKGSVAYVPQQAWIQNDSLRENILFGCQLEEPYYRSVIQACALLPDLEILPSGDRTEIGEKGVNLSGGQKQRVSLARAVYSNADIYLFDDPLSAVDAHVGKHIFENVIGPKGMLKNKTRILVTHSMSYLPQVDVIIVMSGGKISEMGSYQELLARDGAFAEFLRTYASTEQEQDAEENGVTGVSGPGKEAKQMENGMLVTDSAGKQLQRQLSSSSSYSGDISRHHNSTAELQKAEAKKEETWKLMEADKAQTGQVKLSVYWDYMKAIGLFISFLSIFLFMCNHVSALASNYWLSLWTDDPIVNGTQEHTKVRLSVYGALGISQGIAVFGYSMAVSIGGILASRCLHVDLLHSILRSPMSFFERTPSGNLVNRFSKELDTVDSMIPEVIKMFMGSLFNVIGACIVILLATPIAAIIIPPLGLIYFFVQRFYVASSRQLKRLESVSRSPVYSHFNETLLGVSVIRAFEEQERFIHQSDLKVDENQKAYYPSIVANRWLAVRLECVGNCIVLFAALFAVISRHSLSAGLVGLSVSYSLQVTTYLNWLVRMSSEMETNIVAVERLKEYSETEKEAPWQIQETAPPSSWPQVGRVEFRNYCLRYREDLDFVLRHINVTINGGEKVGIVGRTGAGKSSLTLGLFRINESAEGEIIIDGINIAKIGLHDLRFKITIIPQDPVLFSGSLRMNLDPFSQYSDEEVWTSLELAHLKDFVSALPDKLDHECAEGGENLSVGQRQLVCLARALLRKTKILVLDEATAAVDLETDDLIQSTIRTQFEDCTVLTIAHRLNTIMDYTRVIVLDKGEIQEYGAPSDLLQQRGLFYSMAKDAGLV

O=c1cc(-c2ccc(OCCOCCNCCOCCOc3ccc(-c4cc(=O)c5ccccc5o4)cc3)cc2)oc2ccccc12 [14a, 1,13-Bis[4′-(4H-chromen-4-on-2-yl)phenyl]-1,4,10,13-tetraoxa-7-azatridecane]
fold lower activity than FD18 in reversing PTX resistance (P-gp [1]): 2.1 fold
AUC(0-t) [2]: 78.9 ng·h/mL
Cmax [2]: 18 ng/mL
Tmax [2]: 50 min
Normalized AUC (systemic exposure relative to FD18) ([2]; listed as M1): 12%

COc1cccc2c1C(=O)c1c(O)c3c(c(O)c1C2=O)C[C@@](O)(C(=O)CO)C[C@@H]3O[C@H]1C[C@H](N)[C@H](O)[C@H](C)O1 [DOX, doxorubicin]
RF, LCC6MDR + 1 μM FM04 (P-gp [1]): 25.2
RF, LCC6MDR + DMSO (P-gp [1]): 1.0
IC50 (MRP1): 616 ± 54.2 nM
IC50 (LCC6 cells; [7]): 27 ± 4.6 nM
RF, LCC6 + DMSO (LCC6 cells): 38.6

COc1cccc2c1C(=O)c1c(O)c3c(c(O)c1C2=O)C[C@@](O)(C(C)=O)C[C@@H]3O[C@H]1C[C@H](N)[C@H](O)[C@H](C)O1 [Daunorubicin, daunorubicin]
RF, LCC6MDR + 1 μM FM04 (P-gp [1]): 6.3
RF, LCC6MDR + DMSO (P-gp [1]): 1.0
IC50 (LCC6 cells; LCC-6, read-out: IC50 of anticancer drug, LCC6 + DMSO): 22.1 ± 2.2 nM
RF, LCC6 + DMSO (LCC6 cells): 60.5

O=c1cc(-c2ccc(OCCOCCN(CCOCCOc3ccc(-c4cc(=O)c5ccccc5o4)cc3)Cc3ccccc3)cc2)oc2ccccc12 [FD18]
RF (relative-fold) (P-gp [1]): > 68
EC50 (P-gp [1]; EC50 for P-gp modulation, range over PTX reversal and DOX accumulation in LCC6MDR): 116 to 148 nM
AUC(0-t) [2]: 682 ng·h/mL
IC50 (L929): 85000 ± 5000 nM
EC50 (P-gp [3]): 116 nM
Transport substrate of P-gp (P-gp [4]): substrate of P-gp

O=c1cc(-c2ccc(OCCOCCO)cc2)oc2ccccc12 [FM327, 2-(4-(2-(2-hydroxyethoxy)ethoxy)phenyl)-4H-chromen-4-one]
EC50 (P-gp [1]; EC50 needed for reversing MDR in LCC6MDR cells: PTX, LCC6MDR, PTX resistance): > 1000 nM
AUC(0-t) [2]: 49.1 ng·h/mL
Cmax [2]: 21 ng/mL
Tmax [2]: 50 min
Normalized AUC (systemic exposure relative to FD18) ([2]; listed as M3): 7%

O=C1c2c(O)ccc(O)c2C(=O)c2c(NCCNCCO)ccc(NCCNCCO)c21 [Mitoxantrone, mitoxantrone]
RF, LCC6MDR + 1 μM FM04 (P-gp [1]): 17.3
RF, LCC6MDR + DMSO (P-gp [1]): 1.0
IC50 (LCC6 cells; [7]): 37.4 ± 11.7 nM
RF, LCC6 + DMSO (LCC6 cells): 28.1

CC[C@@]1(O)C(=O)OCc2c1cc1n(c2=O)Cc2cc3c(CN(C)C)c(O)ccc3nc2-1 [Topotecan, topotecan]
IC50 (BCRP): 225 ± 32 nM

CC[C@]1(O)C[C@@H]2CN(CCc3c([nH]c4ccccc34)[C@@](C(=O)OC)(c3cc4c(cc3OC)N(C)[C@H]3[C@@](O)(C(=O)OC)[C@H](OC(C)=O)[C@]5(CC)C=CCN6CC[C@]43[C@@H]65)C2)C1 [Vinblastine, vinblastine]
RF, LCC6MDR + 1 μM FM04 (P-gp [1]): 61.3
RF, LCC6MDR + DMSO (P-gp [1]): 1.0
IC50 (LCC6 cells; [7]): 0.38 ± 0.14 nM
RF, LCC6 + DMSO (LCC6 cells): 24.2
RF, LCC6 + 1 μM FM04 (LCC6 cells): 10.7

CC[C@]1(O)C[C@H]2CN(CCc3c([nH]c4ccccc34)[C@@](C(=O)OC)(c3cc4c(cc3OC)N(C=O)[C@H]3[C@@](O)(C(=O)OC)[C@H](OC(C)=O)[C@]5(CC)C=CCN6CC[C@]43[C@@H]65)C2)C1 [Vincristine, vincristine]
RF, LCC6MDR + 1 μM FM04 (P-gp [1]): 68.0
RF, LCC6MDR + DMSO (P-gp [1]): 1.0
IC50 (LCC6 cells; [7]): 0.71 ± 0.32 nM
RF, LCC6 + DMSO (LCC6 cells): 39.3
RF, LCC6 + 1 μM FM04 (LCC6 cells): 21.5

O=c1cc(-c2ccc(O)cc2)oc2cc(O)cc(O)c12 [apigenin]
RF (relative-fold) (P-gp [1]): 1.0
EC50 (P-gp [5]): > 10000 nM

O=c1cc(-c2ccc(OCCOCCOCCOCCOc3ccc(-c4cc(=O)c5ccccc5o4)cc3)cc2)oc2ccccc12 [compound 61]
RF (relative-fold) (P-gp [1]): > 28

CC(C)c1nc(CN(C)C(=O)N[C@H](C(=O)N[C@@H](Cc2ccccc2)C[C@H](O)[C@H](Cc2ccccc2)NC(=O)OCc2cncs2)C(C)C)cs1 [ritonavir]
fold enhancement of the AUC of oral PTX vs a single oral dose of PTX [6]: 2.5 fold
